In patent US20060287320A1, “Preparation of thioarabinofuranosyl compounds and use thereof” (Southern Research Institute, priority 1998, published 2006):

Experiments:
CAK1-1 Renal = assay: In vitro IC50, 72 hour exposure, Natural Red assay; format: cell-based; details: read-out: IC50 Molar Values
Method: (§1) EXAMPLE 3 The following in vitro tests were carried out.
(§2) The above tests were carried out with a 72 hour exposure to the compound using Natural Red assay for all cell lines except SK-MEL 28 which was done with SRB assay.

DLD-1 Colon = assay: In vitro IC50, 72 hour exposure, Natural Red assay; format: cell-based; details: Homo sapiens, read-out: IC50 Molar Values
Method: as §1, §2

LOX IMV1 Melanoma = assay: In vitro IC50, 72 hour exposure, Natural Red assay; format: cell-based; details: read-out: IC50 Molar Values
Method: as §1, §2

NC1-H23 Lung = assay: In vitro IC50, 72 hour exposure, Natural Red assay; format: cell-based; details: read-out: IC50 Molar Values
Method: as §1, §2

PC-3 Prostate = assay: In vitro IC50, 72 hour exposure, Natural Red assay; format: cell-based; details: read-out: IC50 Molar Values
Method: as §1, §2

SNB-7 (CNS) = assay: In vitro IC50, 72 hour exposure, Natural Red assay; format: cell-based; details: Homo sapiens, read-out: IC50 Molar Values
Method: as §1, §2

ZR-75-1 Mammary = assay: In vitro IC50, 72 hour exposure, Natural Red assay; format: cell-based; details: Homo sapiens, read-out: IC50 Molar Values
Method: as §1, §2

SK-MEL 28 Melanoma = assay: In vitro IC50, 72 hour exposure, SRB assay; format: cell-based; details: Homo sapiens, read-out: IC50 Molar Values
Method: as §1, §2

SC Colon 36 Tumor = assay: Response of SC Colon 36 Tumor to Treatment; format: in vivo; details: 8 Mg/Kg IP, Q 4H × 3 day 9-17
Method: (§3) The following in vivo tests were carried out to illustrate the effectiveness of the compounds of the present invention.

SC CAKI-1 Renal Tumor = assay: Response of SC CAKI-1 Renal Tumor to Treatment; format: in vivo; details: Q 4H × 3 day 7-15
Method: as §3

SC HCT-116 Colon Tumor = assay: Response of SC HCT-116 Colon Tumor to Treatment; format: in vivo; details: Q 4H × 3 day 6-14
Method: as §3

CEM cells (wild-type) [1] = assay: Metabolism of dCyd and analogs in wild-type CEM cells; format: cell-based; details: WT CEM cells; 100 nM; incubation time 1 hour
Method: (§4) The radioactivity in the 5′-triphosphate peak and the incorporation of radioactivity in the acid-insoluble fraction (DNA) was determined.

araC-resistant CEM cells [2] = assay: Metabolism of dCyd and analogs in araC-resistant CEM cells; format: cell-based; details: 100 nM, incubation time 1 hour
Method: as §4

[3] = Phosphorylation in cell-free CEM extracts, wild-type; format: biochemical; details: wild-type CEM cell extract; 1 μm substrate
Method: (§5) The number in parentheses is the number of experiments performed. […] At various times after the initiation of the experiment, an aliquot of each reaction volume was removed and placed on DE-81 filters. The filters were washed with 1 mM ammonium formate and ethanol, and the amount of radioactivity on each filter was determined. […] This assay was verified by HPLC.

[4] = Phosphorylation in cell-free CEM extracts, araC-resistant; format: biochemical
Method: as §5

[5] = molecular target: T1, dCyd Kinase Activity Isolated from Molt-4 Cells (Homo sapiens, UniProt P27707); assay: Substrate characteristics with dCyd kinase activity isolated from Molt-4 cells; format: biochemical; details: dCyd kinase activity from Molt-4 cells
T1 construct: endogenous in cells; host or cells: Molt-4 cells (enzyme purified from the cells)
T1 sequence (P27707 whole entry): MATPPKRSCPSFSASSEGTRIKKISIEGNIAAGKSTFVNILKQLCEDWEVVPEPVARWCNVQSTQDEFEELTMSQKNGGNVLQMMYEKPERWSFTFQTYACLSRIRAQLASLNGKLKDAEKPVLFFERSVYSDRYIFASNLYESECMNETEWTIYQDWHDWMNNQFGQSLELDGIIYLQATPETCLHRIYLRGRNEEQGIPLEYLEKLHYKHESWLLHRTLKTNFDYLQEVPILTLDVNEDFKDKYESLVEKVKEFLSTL
Method: Each assay was done in duplicate and the kinetic constants were determined from linear double-reciprocal plots of 1/velocity versus 1/concentration of the substrate. The best line was determined by linear regression from at least 5 datum points, and the Km and Vmax were determined from the x and y intercepts.

CEM cells [6] = assay: Complete metabolism of dCyd, T-dCyd, araC and T-araC in CEM cells; format: cell-based; details: 100 nM, incubation 24 hours
Method: The complete metabolism of each compound was determined: The medium was analyzed for the original compound, its deaminated form using reverse phase HPLC, and H20; the acid-soluble extract was analyzed by SAX HPLC for phosphorylated metabolites; and the incorporation of radioactivity into acid-precipitable material (DNA) was determined.

CEM cells [7] = assay: Effect of F-dUrd on metabolism (deamination) in CEM cells; format: cell-based; details: 100 nM, incubation time 24 hours
Method: The complete metabolism of each compound was determined as described in the legend to Table 12, and the percent of deaminated metabolites for each compound was determined.

[8] = test system: DNA synthesis in CEM cells; assay: Effect on DNA synthesis ([3H]dThd incorporation) in CEM cells; format: cell-based; details: Homo sapiens, CCRF-CEM, 750 nM, average of two experiments, read-out: DNA synthesis, Percent of control
Method: (§6) Radiolabeled precursors of DNA [^3H]dThd, RNA ([^3H]Urd), or protein ([^3H]leucine) were added to each treatment 30 minutes after the addition of each compound. Samples were taken 1, 2, 3 and 4 hours after the addition of radiolabeled precursors, and the incorporation of radioactivity into RNA, DNA, or protein were determined as described (Parker et al, Biochem. Pharmacol. 55: 1673-1681, 1998). Each number represents the average of two experiments.

[9] = test system: RNA synthesis in CEM cells; assay: Effect on RNA synthesis ([3H]Urd incorporation) in CEM cells; format: cell-based; details: 750 nM, average of two experiments
Method: as §6

[10] = test system: protein synthesis in CEM cells; assay: Effect on protein synthesis ([3H]leucine incorporation) in CEM cells; format: cell-based; details: Homo sapiens, CCRF-CEM, 750 nM, average of two experiments, read-out: protein synthesis, Percent of control
Method: as §6

CEM cells (wild-type) [11] = assay: Inhibition of CEM cell growth, wild-type; details: Homo sapiens, CCRF-CEM, read-out: IC50 (nM) Wild-type
Method: (§7) CEM cells were incubated with various concentrations of each compound and the effect on. cell numbers was determined using a Coulter Counter. The IC50 was determined from a plot of the percent of control growth versus drug concentration. The data presented are the mean and standard deviation from 3 separate experiments.

araC-resistant CEM cells [12] = assay: Inhibition of CEM cell growth, araC-resistant
Method: as §7

Structure (SMILES): Nc1ccn([C@@H]2S[C@H](CO)[C@@H](O)[C@@H]2O)c(=O)n1 [T-araC, 1-(4-Thio-β-D-arabinofuranosyl) cytosine]
- IC50 (CAK1-1 Renal): 3 µM
- IC50 (DLD-1 Colon): 7 µM
- IC50 (LOX IMV1 Melanoma): 7 µM
- IC50 (NC1-H23 Lung): 5 µM
- IC50 (PC-3 Prostate): 8 µM
- IC50 (SNB-7 (CNS)): 1 µM
- IC50 (ZR-75-1 Mammary): 3 µM
- IC50 (SK-MEL 28 Melanoma): 7 µM
- Days Delay (T − C) (SC Colon 36 Tumor): >38.5 days
- Days to 2 Doubling (SC Colon 36 Tumor): >49.0 days
- Non-Specific Deaths/Total (SC Colon 36 Tumor): 0/5
- Tumor Free Surv/Total (SC Colon 36 Tumor): 4/5
- Tumor Regression Number of Complete (SC Colon 36 Tumor): 4
- Tumor Regression Number of Partial (SC Colon 36 Tumor): 0
- Days Delay (T − C) (SC CAKI-1 Renal Tumor; 8 Mg/Kg IP): 41.2 days
- Days to 3 Doubling (SC CAKI-1 Renal Tumor; 8 Mg/Kg IP): 50.7 days
- Non-Specific Deaths/Total (SC CAKI-1 Renal Tumor; 8 Mg/Kg IP): 0/6
- Tumor Free Surv/Total (SC CAKI-1 Renal Tumor; 8 Mg/Kg IP): 0/6
- Tumor Regression Duration Med (SC CAKI-1 Renal Tumor; 8 Mg/Kg IP): 12.7 days
- Tumor Regression Duration Range (SC CAKI-1 Renal Tumor; 8 Mg/Kg IP): 9 to 18 days
- Tumor Regression Number of Complete (SC CAKI-1 Renal Tumor; 8 Mg/Kg IP): 4
- Tumor Regression Number of Partial (SC CAKI-1 Renal Tumor; 8 Mg/Kg IP): 1
- Days Delay (T − C) (SC CAKI-1 Renal Tumor; 16 Mg/Kg IP): 50.3 days
- Days to 3 Doubling (SC CAKI-1 Renal Tumor; 16 Mg/Kg IP): 59.8 days
- Non-Specific Deaths/Total (SC CAKI-1 Renal Tumor; 16 Mg/Kg IP): 1/6
- Tumor Free Surv/Total (SC CAKI-1 Renal Tumor; 16 Mg/Kg IP): 0/6
- Tumor Regression Duration Med (SC CAKI-1 Renal Tumor; 16 Mg/Kg IP): 26.9 days
- Tumor Regression Duration Range (SC CAKI-1 Renal Tumor; 16 Mg/Kg IP): 16 to 48 days
- Tumor Regression Number of Complete (SC CAKI-1 Renal Tumor; 16 Mg/Kg IP): 5
- Tumor Regression Number of Partial (SC CAKI-1 Renal Tumor; 16 Mg/Kg IP): 0
- Days Delay (T − C) (SC HCT-116 Colon Tumor; 13.3 Mg/Kg IP): >43.1 days
- Days to 2 Doubling (SC HCT-116 Colon Tumor; 13.3 Mg/Kg IP): >52.0 days
- Non-Specific Deaths/Total (SC HCT-116 Colon Tumor; 13.3 Mg/Kg IP): 0/6
- Tumor Free Surv/Total (SC HCT-116 Colon Tumor; 13.3 Mg/Kg IP): 5/6
- Tumor Regression Duration Med (SC HCT-116 Colon Tumor; 13.3 Mg/Kg IP): 23.6 days
- Tumor Regression Duration Range (Days) (SC HCT-116 Colon Tumor; 13.3 Mg/Kg IP): 24-24 Days
- Tumor Regression Number of Complete (SC HCT-116 Colon Tumor; 13.3 Mg/Kg IP): 6
- Tumor Regression Number of Partial (SC HCT-116 Colon Tumor; 13.3 Mg/Kg IP): 0
- Days Delay (T − C) (SC HCT-116 Colon Tumor; 20 Mg/Kg IP): >43.1 days
- Days to 2 Doubling (SC HCT-116 Colon Tumor; 20 Mg/Kg IP): >52.0 days
- Non-Specific Deaths/Total (SC HCT-116 Colon Tumor; 20 Mg/Kg IP): 0/6
- Tumor Free Surv/Total (SC HCT-116 Colon Tumor; 20 Mg/Kg IP): 6/6
- Tumor Regression Number of Complete (SC HCT-116 Colon Tumor; 20 Mg/Kg IP): 6
- Tumor Regression Number of Partial (SC HCT-116 Colon Tumor; 20 Mg/Kg IP): 0
- DNA (CEM cells (wild-type) [1]): 0.0056 pmoles/10^6 cells
- Total (CEM cells (wild-type) [1]): 0.2076 pmoles/10^6 cells
- DNA (araC-resistant CEM cells [2]): 0.0025 pmoles/10^6 cells
- DNA (percent of WT) (araC-resistant CEM cells [2]): 45% of WT
- Total (araC-resistant CEM cells [2]): 0.0535 pmoles/10^6 cells
- Total (percent of WT) (araC-resistant CEM cells [2]): 26% of WT
- Phosphorylation, Wild-type [3]: 0.83 pmoles/mg protein/minute
- Phosphorylation, araC-resistant CEM cells ([4]; araC-resistant CEM cell extract, 1 μm substrate): 0.011 pmoles/mg protein/minute
- Percent of wild-type ([4]; phosphorylation in araC-resistant vs wild-type CEM extract): 1.3% of wild-type
- Relative Vmax [5]: 0.46
- DNA (percent of total) (CEM cells [6]): 0.3% of total
- Original Compound (percent of total) (CEM cells [6]): 96% of total
- Percent Deamination (CEM cells [7]; F-dUrd 0 μM): 0%
- Percent Deamination (CEM cells [7]; F-dUrd 10 μM): 0%
- activity at 0.75 µM [8]: 16%
- RNA synthesis, Percent of control [9]: 87% of control
- activity at 0.75 µM [10]: 72%
- IC50 (CEM cells (wild-type) [11]): 24 ± 9 nM
- IC50 (araC-resistant CEM cells [12]; Homo sapiens, CCRF-CEM, read-out: IC50 (nM) araC-resistant): 125 ± 84 nM
- Resistant/WT (araC-resistant CEM cells [12]; ratio of IC50 araC-resistant / wild-type CEM cells): 5
